Reference: US9000159B2 (Glenmark Pharmaceuticals, S.A., priority 2009, dated 2015)

Target: T1, Human TRPA1 (Homo sapiens, UniProt O75762)
T1 construct: expressed in transfected cells; host or cells: CHO cells
Assay: 45Calcium uptake assay: inhibition of AITC induced cellular uptake of radioactive calcium
Format: cell-based
Conditions: AITC (30 μM) induced 45Ca uptake, Human TRPA1 expressing CHO cells; for inhibition at 1 µM: 1.0 μM test compound, read-out: Percentage inhibition at 1.0 μM; for inhibition at 10 µM: 10.0 μM test compound, read-out: Percentage inhibition at 10.0 μM; for IC50: read-out: Human IC50 value (range)
From the text: The illustrative examples of the present invention are screened for TRPA1 activity according to a modified procedure described in (a) Tóth, A. et al., Life Sciences, 2003, 73, 487-498. (b) McNamara C, R. et al., Proc. Natl. Acad. Sci. U.S.A., 2007, 104, 13525-13530. The screening of the compounds can be carried out by other methods and procedures known to persons skilled in the art.
Screening for TRPA1 Antagonist Using the ^45Calcium Uptake Assay
The inhibition of TRPA1 receptor activation was measured as inhibition of allyl isothiocyanate (AITC) induced cellular uptake of radioactive calcium. Test compounds were dissolved in DMSO to prepare 10 mM stock solution and then diluted using plain medium with 0.1% BSA and 1.8 mM CaCl2 to get desired concentration. Final concentration of DMSO in the reaction was 0.5% (v/v). Human TRPA1 expressing CHO cells were grown in F-12 DMEM medium with 10% FBS, 1% penicillin-streptomycin solution, 400 μg/ml of G-418. Cells were seeded 24 h prior to the assay in 96 well plates so as to get ˜50,000 cells per well on the day of experiment. Cells were treated with test compounds for 10 min followed by addition of AITC at a final concentration of 30 μM and 5 μCi/ml ^45Ca^+2 for 3 min. Cells were washed and lysed using buffer containing 1% Triton X-100, 0.1% deoxycholate and 0.1% SDS. Radioactivity in the lysate was measured in Packard Top count after addition of liquid scintillant. Concentration response curves were plotted as a % of maximal response obtained in the absence of test antagonist. IC50 value was calculated from concentration response curve by nonlinear regression analysis using GraphPad PRISM software.

T1 sequence (O75762 whole entry): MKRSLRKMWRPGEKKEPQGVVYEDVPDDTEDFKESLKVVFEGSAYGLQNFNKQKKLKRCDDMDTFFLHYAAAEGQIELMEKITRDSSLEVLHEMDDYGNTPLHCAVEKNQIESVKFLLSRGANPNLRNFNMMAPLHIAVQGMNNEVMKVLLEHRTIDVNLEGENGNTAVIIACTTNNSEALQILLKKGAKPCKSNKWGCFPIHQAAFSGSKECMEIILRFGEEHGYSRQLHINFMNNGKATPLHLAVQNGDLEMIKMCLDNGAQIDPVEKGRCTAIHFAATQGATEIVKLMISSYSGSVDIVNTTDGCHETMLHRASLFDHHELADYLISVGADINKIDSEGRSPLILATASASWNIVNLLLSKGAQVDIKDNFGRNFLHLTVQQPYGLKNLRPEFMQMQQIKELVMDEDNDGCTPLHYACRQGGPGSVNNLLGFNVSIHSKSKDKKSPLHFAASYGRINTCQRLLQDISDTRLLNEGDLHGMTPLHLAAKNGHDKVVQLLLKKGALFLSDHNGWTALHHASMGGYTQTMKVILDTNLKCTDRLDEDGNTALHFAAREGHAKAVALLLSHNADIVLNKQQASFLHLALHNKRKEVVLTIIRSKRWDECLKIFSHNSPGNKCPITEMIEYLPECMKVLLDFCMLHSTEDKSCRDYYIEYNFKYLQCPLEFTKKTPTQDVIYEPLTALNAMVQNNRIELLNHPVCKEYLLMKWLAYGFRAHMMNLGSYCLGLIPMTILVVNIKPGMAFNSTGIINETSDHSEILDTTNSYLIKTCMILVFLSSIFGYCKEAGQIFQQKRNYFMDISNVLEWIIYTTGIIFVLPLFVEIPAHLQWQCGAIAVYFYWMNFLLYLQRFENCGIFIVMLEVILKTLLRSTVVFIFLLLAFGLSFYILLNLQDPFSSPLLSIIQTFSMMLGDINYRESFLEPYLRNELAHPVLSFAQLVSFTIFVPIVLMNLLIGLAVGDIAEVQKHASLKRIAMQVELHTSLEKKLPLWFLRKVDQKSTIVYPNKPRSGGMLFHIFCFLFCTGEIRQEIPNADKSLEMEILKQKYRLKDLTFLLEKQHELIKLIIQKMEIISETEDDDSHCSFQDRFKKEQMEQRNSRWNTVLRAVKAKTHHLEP

SMILES | inhibition at 1 µM [%] | inhibition at 10 µM [%] | IC50 [µM]
Cn1c(=O)c2c(cnn2CC(=O)Nc2cc(-c3ccc(Br)cc3)on2)n(C)c1=O [Example 84, N-[5-(4-Bromophenyl)isoxazol-3-yl]-2-(4,6-dimethyl-5,7-dioxo-4,5,6,7,-tetrahydro-1H-pyrazolo[4,3-d]pyrimidin-1-yl)acetamide] | 17.2 | 83.9 | –
CC(C)CCOc1c(F)cc(-c2csc(NC(=O)Cn3ncc4c3c(=O)n(C)c(=O)n4C)n2)cc1F [Example 76, N-{4-[3,5-Difluoro-4-(3-methylbutoxy)phenyl]-1,3-thiazol-2-yl}-2-(4,6-dimethyl-5,7-dioxo-4,5,6,7-tetrahydro-1H-pyrazolo[4,3-d]pyrimidin-1-yl)acetamide] | 84.3 | 95.6 | > 0.1
Cn1nc2c(c1CC(=O)Nc1nc(-c3ccc(C(F)(F)F)c(F)c3)cs1)c(=O)n(C)c(=O)n2C [Example 54, N-[4-(3-Fluoro-4-trifluoromethylphenyl)-1,3-thiazol-2-yl]-2-(2,5,7-trimethyl-4,6-dioxo-4,5,6,7-tetrahydro-2H-pyrazolo[3,4-d]pyrimidin-3-yl)acetamide] | 97.7 | 99.6 | < 0.05
Cn1nc2c(c1CC(=O)Nc1nc(-c3ccc(C(F)(F)F)c(F)c3)c[nH]1)c(=O)n(C)c(=O)n2C [Example 85, N-{4-[3-Fluoro-4-(trifluoromethyl)phenyl]-1H-imidazol-2-yl]-2-(2,5,7-trimethyl-4,6-dioxo-4,5,6,7-tetrahydro-2H-pyrazolo[3,4-d]pyrimidin-3-yl)acetamide] | 44.1 | 78.2 | –
Cc1nn(CC(=O)Nc2nc(-c3cc(F)c(OCC(C)(C)C)c(F)c3)cs2)c2c(=O)n(C)c(=O)n(C)c12 [Example 82, N-[4-(3,5-Difluoro-4-(2,2-dimethylpropoxy)phenyl)-1,3-thiazol-2-yl]-2-(3,4,6-trimethyl-5,7-dioxo-4,5,6,7-tetrahydro-1H-pyrazolo[4,3-d]pyrimidin-1-yl)acetamide] | 92.8 | 99 | 0.05 to 0.1
Cn1nc2c(c1CC(=O)Nc1nc(-c3cc(F)cc(F)c3)cs1)c(=O)n(C)c(=O)n2C [Example 52, N-[4-(3,5-Difluorophenyl)-1,3-thiazol-2-yl]-2-(2,5,7-trimethyl-4,6-dioxo-4,5,6,7-tetrahydro-2H-pyrazolo[3,4-d]pyrimidin-3-yl)acetamide] | 37.8 | 64.8 | –
CC(C)COc1c(F)cc(-c2csc(NC(=O)Cn3ncc4c3c(=O)n(C)c(=O)n4C)n2)cc1F [Example 74, N-[4-(3,5-Difluoro-4-isobutoxyphenyl)-1,3-thiazol-2-yl]-2-(4,6-dimethyl-5,7-dioxo-4,5,6,7-tetrahydro-1H-pyrazolo[4,3-d]pyrimidin-1-yl)acetamide] | 92.1 | 98.8 | < 0.05
Cc1cc2c(c(=O)n(C)c(=O)n2C)n1CC(=O)Nc1cc(-c2ccc(Br)cc2)on1 [Example 33, N-[5-(4-bromophenyl)isoxazol-3-yl]-2-(1,3,6-trimethyl-2,4-dioxo-1,2,3,4-tetrahydro-5H-pyrrolo[3,2-d]pyrimidin-5-yl)acetamide] | 0 | 28.3 | –
Cn1c(=O)c2c(cnn2CC(=O)Nc2nc(-c3cc(F)c(OCC(C)(C)C)c(F)c3)cs2)n(C)c1=O [Example 78, N-{4-[4-(2,2-Dimethylpropoxy)-3,5-difluorophenyl]-1,3-thiazol-2-yl}-2-(4,6-dimethyl-5,7-dioxo-4,5,6,7-tetrahydro-1H-pyrazolo[4,3-d]pyrimidin-1-yl)acetamide] | 100 | 99.7 | < 0.05
Cc1nn(CC(=O)Nc2nc(-c3cc(Cl)c(OCC(C)(C)C)c(Cl)c3)cs2)c2c(=O)n(C)c(=O)n(C)c12 [Example 83, N-[4-(3,5-Dichloro-4-(2,2-dimethylpropoxy)phenyl)-1,3-thiazol-2-yl]-2-(3,4,6-trimethyl-5,7-dioxo-4,5,6,7-tetrahydro-1H-pyrazolo[4,3-d]pyrimidin-1-yl)acetamide] | 75.6 | 95 | < 0.05
